One series concerns other PDE isoforms. Conditions: reported in Brandon et al., Annual Reports in Medicinal Chemistry 42: 4-5, 2007; cited from earlier work.
The conditions of series [1]: reported in Brandon et al., Annual Reports in Medicinal Chemistry 42: 4-5, 2007; cited from earlier work.
The next series concerns the target human PDE2A1 (Homo sapiens (Human), UniProt O00408). The series can be described thus: IMAP FP PDE selectivity panel, human PDE2A1. The class given is biochemical. Conditions: Human PDE2, Lab A; read-out: Human PDE2 Ki (nM) - Lab A. The gist of the method:
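IMAP FP format: substrate 50 nM FAM-cAMP plus 1000 nM cGMP, enzyme (insect-cell GST-tagged human PDE2A1) at ~20% conversion, 60 min reaction at room temperature. Apparent inhibition constants calculated from parallel/perpendicular fluorescence with KM 10,000 nM.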

Another series concerns the target Rhesus PDE2A3 (Macaca mulatta, UniProt B3VTJ2). The series can be described thus: PDE2 fluorescence polarization (IMAP FP) inhibition assay, rhesus enzyme. Type of series: biochemical, rhesus macaque. Conditions: Rhesus PDE2, Lab A; read-out: Rhesus PDE2 Ki (nM) - Lab A. The gist of the method:
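IMAP FP (mP from parallel and perpendicular fluorescence against substrate-only control) was read ≥1 h after adding binding reagent. The preceding 60 min room-temperature reaction contained FAM-cAMP (50 nM) and cGMP (1 uM) in pH 7.2 Tris buffer with MgCl2 and DTT. Enzyme was supernatant of sonicated AD293 cells expressing rhesus PDE2A3; compounds were 3-fold titrated, DMSO 1% final.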
Background: In fluorescence polarisation assays a small probe gives low polarisation when free and higher when bound to something large.

SMILES strings stand for the structures.

human PDE2A1, sequence (O00408 other isoform, or with tags, fused parts or gaps): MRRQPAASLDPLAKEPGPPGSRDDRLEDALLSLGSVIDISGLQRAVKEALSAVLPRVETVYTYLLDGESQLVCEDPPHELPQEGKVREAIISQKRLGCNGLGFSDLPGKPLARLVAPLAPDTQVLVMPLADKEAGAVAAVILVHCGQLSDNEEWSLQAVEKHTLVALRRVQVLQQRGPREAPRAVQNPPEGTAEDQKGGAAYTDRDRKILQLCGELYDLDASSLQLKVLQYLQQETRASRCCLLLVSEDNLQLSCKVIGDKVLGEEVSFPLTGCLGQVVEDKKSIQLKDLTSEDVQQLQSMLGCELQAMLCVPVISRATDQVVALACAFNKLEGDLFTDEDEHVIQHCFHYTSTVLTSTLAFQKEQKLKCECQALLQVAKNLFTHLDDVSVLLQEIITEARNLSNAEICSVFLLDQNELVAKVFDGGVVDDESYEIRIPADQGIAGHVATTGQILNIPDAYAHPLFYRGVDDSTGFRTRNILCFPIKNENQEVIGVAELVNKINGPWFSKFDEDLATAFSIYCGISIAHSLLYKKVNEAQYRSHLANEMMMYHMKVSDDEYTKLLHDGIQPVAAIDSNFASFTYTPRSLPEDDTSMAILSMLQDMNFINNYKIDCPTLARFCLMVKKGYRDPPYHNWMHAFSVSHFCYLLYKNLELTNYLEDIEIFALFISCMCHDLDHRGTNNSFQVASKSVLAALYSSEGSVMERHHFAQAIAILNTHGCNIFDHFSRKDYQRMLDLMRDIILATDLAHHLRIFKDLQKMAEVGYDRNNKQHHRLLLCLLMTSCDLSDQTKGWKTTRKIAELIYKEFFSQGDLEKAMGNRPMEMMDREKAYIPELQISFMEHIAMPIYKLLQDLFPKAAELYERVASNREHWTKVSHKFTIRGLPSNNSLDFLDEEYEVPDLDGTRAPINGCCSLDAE
Rhesus PDE2A3, sequence (B3VTJ2 1-941): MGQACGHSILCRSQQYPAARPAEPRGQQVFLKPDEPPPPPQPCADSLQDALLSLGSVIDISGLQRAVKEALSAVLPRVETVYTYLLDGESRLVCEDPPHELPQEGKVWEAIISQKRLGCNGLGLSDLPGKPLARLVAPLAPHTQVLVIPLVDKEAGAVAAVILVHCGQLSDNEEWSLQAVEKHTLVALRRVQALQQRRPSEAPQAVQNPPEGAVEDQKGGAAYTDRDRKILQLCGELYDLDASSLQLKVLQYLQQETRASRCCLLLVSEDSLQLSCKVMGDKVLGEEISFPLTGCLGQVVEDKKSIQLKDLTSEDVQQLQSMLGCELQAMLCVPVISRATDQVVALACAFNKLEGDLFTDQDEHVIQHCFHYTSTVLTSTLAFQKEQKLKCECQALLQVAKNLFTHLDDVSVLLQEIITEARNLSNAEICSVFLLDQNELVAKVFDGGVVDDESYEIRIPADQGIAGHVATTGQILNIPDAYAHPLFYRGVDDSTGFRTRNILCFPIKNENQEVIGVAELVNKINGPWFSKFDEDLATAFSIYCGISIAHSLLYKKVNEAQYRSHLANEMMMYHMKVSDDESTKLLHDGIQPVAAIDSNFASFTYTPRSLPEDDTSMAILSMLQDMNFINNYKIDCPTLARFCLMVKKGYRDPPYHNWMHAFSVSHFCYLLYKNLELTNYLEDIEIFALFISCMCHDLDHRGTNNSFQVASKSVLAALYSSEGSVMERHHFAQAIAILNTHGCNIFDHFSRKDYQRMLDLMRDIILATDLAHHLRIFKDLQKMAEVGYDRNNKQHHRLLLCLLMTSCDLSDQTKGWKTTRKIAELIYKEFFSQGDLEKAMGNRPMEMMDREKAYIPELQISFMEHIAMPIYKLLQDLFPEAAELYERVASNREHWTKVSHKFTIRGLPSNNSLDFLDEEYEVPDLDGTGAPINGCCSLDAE

Take `COc1ccc(Cc2nn3c([C@@H](CCCc4ccccc4)[C@@H](C)O)nc(C)c3c(=O)[nH]2)cc1OC` [BAY 60-7550]: the “potency at other PDE isoforms” value in the series on other PDE isoforms is recorded as “significant potency at other PDE isoforms”. Also, in series [1], the brain penetration result is reported as “limited brain penetration”.

In the case of `CC(C)[C@@H](NC(=O)c1cc(=O)[nH]c(C2CC2)n1)c1ccc(OC(F)(F)F)c(F)c1` [Example 128, 2-cyclopropyl-N-{(1R)-1-[3-fluoro-4-(trifluoromethoxy)phenyl]-2-methylpropyl}-6-oxo-1,6-dihydropyrimidine-4-carboxamide], the Ki (commonly a measure of affinity in units of concentration, obtained from inhibition or displacement) at human PDE2A1 came to 1.2 nM; at Rhesus PDE2A3, 2 nM.

For `CC[C@@H](NC(=O)c1cc(=O)[nH]c(-c2ccccc2)n1)c1ccc(SC(F)(F)F)cc1` [Example 151, 6-oxo-2-phenyl-N-[(1R)-1-{4-[(trifluoromethyl)sulfanyl]phenyl}propyl]-1,6-dihydropyrimidine-4-carboxamide], the Ki was determined as 3.2 nM on human PDE2A1 and 3.3 nM on Rhesus PDE2A3.

The record behind these values is US9815796B2 (Merck Sharp & Dohme Corp., priority 2013, dated 2017).
